According to ChEMBL document CHEMBL1127221, “The design of a dipeptide library for screening at peptide receptor sites” (Bioorg Med Chem Lett, 1993):
Each block holds one compound with its values, some of them ahead of it.

Legend:
[1] = biological target: T1, Gastrin/cholecystokinin type B receptor (Homo sapiens, UniProt P32239); test: Inhibitory activity against Cholecystokinin type B receptor
T1 sequence (P32239 whole entry): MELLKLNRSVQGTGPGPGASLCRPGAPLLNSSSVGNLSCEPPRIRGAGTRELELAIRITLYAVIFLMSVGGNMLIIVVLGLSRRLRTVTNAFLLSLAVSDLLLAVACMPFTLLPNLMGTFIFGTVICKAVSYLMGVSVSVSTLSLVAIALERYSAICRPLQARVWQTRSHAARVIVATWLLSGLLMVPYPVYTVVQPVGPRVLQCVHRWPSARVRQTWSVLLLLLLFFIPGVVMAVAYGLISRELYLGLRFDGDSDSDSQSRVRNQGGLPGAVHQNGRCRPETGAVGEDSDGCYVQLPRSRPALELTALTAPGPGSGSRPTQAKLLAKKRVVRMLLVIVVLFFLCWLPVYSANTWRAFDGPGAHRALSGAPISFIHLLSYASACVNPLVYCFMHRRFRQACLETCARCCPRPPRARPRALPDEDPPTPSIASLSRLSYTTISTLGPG

[2] = biological target: T2, Cholecystokinin receptor type A (Homo sapiens, UniProt P32238); test: Inhibitory activity against CCK-A receptor
T2 sequence (P32238 whole entry): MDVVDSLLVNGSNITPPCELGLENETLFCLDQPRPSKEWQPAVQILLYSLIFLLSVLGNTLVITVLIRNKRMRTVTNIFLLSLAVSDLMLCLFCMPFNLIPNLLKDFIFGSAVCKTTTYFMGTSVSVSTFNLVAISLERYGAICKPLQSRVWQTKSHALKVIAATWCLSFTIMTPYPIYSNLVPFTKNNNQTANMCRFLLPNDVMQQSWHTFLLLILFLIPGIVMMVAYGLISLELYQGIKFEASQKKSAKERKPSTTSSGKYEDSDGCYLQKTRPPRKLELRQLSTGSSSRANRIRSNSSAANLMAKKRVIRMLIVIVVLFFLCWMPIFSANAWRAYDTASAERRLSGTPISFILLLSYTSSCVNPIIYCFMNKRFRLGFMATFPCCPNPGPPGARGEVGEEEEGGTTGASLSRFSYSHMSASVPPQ

[3] = biological target: Angiotensin-converting enzyme (Homo sapiens, UniProt P12821); test: Inhibitory activity against Angiotensin I converting enzyme
Sequence of Angiotensin-converting enzyme (P12821 whole entry): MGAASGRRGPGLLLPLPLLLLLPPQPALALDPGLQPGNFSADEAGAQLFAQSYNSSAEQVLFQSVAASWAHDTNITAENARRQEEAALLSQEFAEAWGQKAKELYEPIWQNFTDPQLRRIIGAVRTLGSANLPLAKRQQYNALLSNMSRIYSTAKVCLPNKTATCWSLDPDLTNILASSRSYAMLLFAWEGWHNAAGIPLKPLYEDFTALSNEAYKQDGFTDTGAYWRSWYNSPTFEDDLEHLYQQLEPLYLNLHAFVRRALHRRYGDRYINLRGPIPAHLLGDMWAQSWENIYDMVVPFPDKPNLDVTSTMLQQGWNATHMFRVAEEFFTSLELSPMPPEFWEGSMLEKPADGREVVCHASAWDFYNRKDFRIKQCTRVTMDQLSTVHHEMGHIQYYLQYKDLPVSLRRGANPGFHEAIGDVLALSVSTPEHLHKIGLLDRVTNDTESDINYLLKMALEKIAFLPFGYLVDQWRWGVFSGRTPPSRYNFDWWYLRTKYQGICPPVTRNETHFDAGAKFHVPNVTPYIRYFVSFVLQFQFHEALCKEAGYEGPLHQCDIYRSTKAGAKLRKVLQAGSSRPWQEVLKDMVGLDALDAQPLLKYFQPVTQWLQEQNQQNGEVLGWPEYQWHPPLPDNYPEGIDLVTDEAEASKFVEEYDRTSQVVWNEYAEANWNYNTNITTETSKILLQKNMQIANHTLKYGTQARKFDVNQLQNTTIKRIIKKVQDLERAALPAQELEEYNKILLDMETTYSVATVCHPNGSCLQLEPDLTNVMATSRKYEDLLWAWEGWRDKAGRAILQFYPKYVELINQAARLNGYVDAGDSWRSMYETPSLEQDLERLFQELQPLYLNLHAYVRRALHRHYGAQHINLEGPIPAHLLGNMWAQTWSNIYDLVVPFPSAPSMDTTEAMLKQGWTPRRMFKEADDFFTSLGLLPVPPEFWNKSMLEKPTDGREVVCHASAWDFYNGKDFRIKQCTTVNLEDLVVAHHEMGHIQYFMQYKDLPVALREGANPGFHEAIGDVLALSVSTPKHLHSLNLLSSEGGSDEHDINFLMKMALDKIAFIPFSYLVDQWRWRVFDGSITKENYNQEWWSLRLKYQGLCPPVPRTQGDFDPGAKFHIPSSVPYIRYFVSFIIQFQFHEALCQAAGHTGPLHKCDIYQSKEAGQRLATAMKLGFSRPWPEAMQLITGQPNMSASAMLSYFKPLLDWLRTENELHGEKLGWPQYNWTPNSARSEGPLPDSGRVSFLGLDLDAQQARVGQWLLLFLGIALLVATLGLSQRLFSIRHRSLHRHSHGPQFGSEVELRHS

Ki [1]: 1.7 nM
Compound: C[C@@](N)(Cc1cn(C(=O)OC2C3CC4CC(C3)CC2C4)c2ccccc12)C(=O)NC[C@H](NC(=O)CCC(=O)O)c1ccccc1 (stereo partly drawn)

Ki [2]: 3 nM
Compound: C[C@@](N)(Cc1cn(C(=O)OC2C3CC4CC(C3)CC2C4)c2ccccc12)C(=O)N[C@H](CC(=O)O)Cc1ccccc1 (stereo partly drawn)

Ki [3]: 100 nM
Compound: H-EWPRPQIPP-OH
